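96-well plates; 48 h exposure; 5 concentrations. Endpoints by linear interpolation between flanking doses. Not reached: highest tested concentration assigned. GI50 is the concentration that inhibits growth by half.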 Active and inactive are the calls of the source. No stated cut-off is given here; in the data, active = GI50 up to about 1.1 µM and inactive = higher.
Legend:
Test in all cases: inhibition of tumour cell growth, NCI panel, 48 h
A498 = tested on: A498
CAKI-1 = tested on: CAKI-1
DU-145 = tested on: DU-145
EKVX = tested on: EKVX
HOP-62 = tested on: HOP-62
Hs-578T = tested on: Hs-578T
IGROV-1 = tested on: IGROV-1
K562 = tested on: K562
LOX IMVI = tested on: LOX IMVI
MCF7 = tested on: MCF7
NCI-H226 = tested on: NCI-H226
NCI-H460 = tested on: NCI-H460
SF-295 = tested on: SF-295
SF-539 = tested on: SF-539
SK-MEL-2 = tested on: SK-MEL-2
SK-OV-3 = tested on: SK-OV-3
SN12C = tested on: SN12C
SNB-19 = tested on: SNB-19
U-251 = tested on: U-251
UACC-62 = tested on: UACC-62

SMILES | GI50 (A498) | GI50 (CAKI-1) | GI50 (DU-145) | GI50 (EKVX) | GI50 (HOP-62) | GI50 (Hs-578T) | GI50 (IGROV-1) | GI50 (K562) | GI50 (LOX IMVI) | GI50 (MCF7) | GI50 (NCI-H226) | GI50 (NCI-H460) | GI50 (SF-295) | GI50 (SF-539) | GI50 (SK-MEL-2) | GI50 (SK-OV-3) | GI50 (SN12C) | GI50 (SNB-19) | GI50 (U-251) | GI50 (UACC-62)
O=C1c2ccccc2C(=O)c2c1oc1cc(O)c(Cl)cc21 | 19.7 µM (inactive) | 16.7 µM (inactive) | 4.89 µM (inactive) | 8.75 µM (inactive) | 10.7 µM (inactive) | 2.29 µM (inactive) | 10.1 µM (inactive) | 13.5 µM (inactive) | 1.61 µM (inactive) | 8.11 µM (inactive) | 14 µM (inactive) | 3.04 µM (inactive) | 2.8 µM (inactive) | 5.41 µM (inactive) | 1.99 µM (inactive) | 17.2 µM (inactive) | 7.98 µM (inactive) | 8.81 µM (inactive) | 5.36 µM (inactive) | 1.93 µM (inactive)
NCCC1CN(C(=O)OCc2ccccc2)c2ccccc21 (stereo not given) | > 37.2 µM (inactive) | 21.4 µM (inactive) | 17.3 µM (inactive) | 20.2 µM (inactive) | 23.1 µM (inactive) | 26.2 µM (inactive) | 9.48 µM (inactive) | 4.58 µM (inactive) | 4.12 µM (inactive) | 1.01 µM (active) | 12 µM (inactive) | 17.7 µM (inactive) | 18.3 µM (inactive) | 3.44 µM (inactive) | 18 µM (inactive) | > 42.4 µM (inactive) | 13.2 µM (inactive) | 19.5 µM (inactive) | 14.3 µM (inactive) | 15.6 µM (inactive)
Oc1c(O)c(Cc2ccccc2)c(Cc2ccccc2)c(Cc2ccccc2)c1Cc1ccccc1 | > 10 µM (inactive) | > 10 µM (inactive) | > 10 µM (inactive) | > 10 µM (inactive) | > 10 µM (inactive) | > 10 µM (inactive) | > 10 µM (inactive) | > 10 µM (inactive) | > 10 µM (inactive) | > 10 µM (inactive) | > 10 µM (inactive) | > 10 µM (inactive) | > 10 µM (inactive) | > 10 µM (inactive) | > 10 µM (inactive) | > 10 µM (inactive) | > 10 µM (inactive) | > 10 µM (inactive) | > 10 µM (inactive) | > 10 µM (inactive)
CC1(c2ccc(Cl)cc2)N=C(NCCO)c2ccccc21 (stereo not given) | 18.6 µM (inactive) | > 71 µM (inactive) | 2.07 µM (inactive) | > 100 µM (inactive) | 25.1 µM (inactive) | 37.8 µM (inactive) | 22.9 µM (inactive) | 6.61 µM (inactive) | 13.8 µM (inactive) | 20.7 µM (inactive) | 11.1 µM (inactive) | 13.3 µM (inactive) | 8.36 µM (inactive) | 2.25 µM (inactive) | 18.2 µM (inactive) | 88.7 µM (inactive) | 16.9 µM (inactive) | 14.7 µM (inactive) | 16.9 µM (inactive) | 12 µM (inactive)

Reference: ChEMBL document CHEMBL1201862, “PubChem BioAssay data set” (2004)
